Assay results reported in the NIST ThermoML archive (doi:10.1016/j.jct.2016.07.038).
± gives the expanded uncertainty stated by the source.

How the values were obtained:
[1] = Crystal; for Normal melting temperature: DTA
[2] = Molar enthalpy of transition or fusion; conditions: Crystal; DSC
[3] = molar heat capacity at constant pressure; conditions: 298.15 K; 101.33 kPa; Crystal; Small sample (50 mg) DSC

Compound	Normal melting temperature [1] [°C]	Molar enthalpy of transition or fusion [2] [kJ/mol]	molar heat capacity at constant pressure [3] [J/K/mol]	mass density ([1]; 298.15 K, 101.33 kPa, measuring the mass and volume of a pellet of the compound) [kg/m3]
O=C1NCCO1 [2-oxazolidone]	90 ± 0.4	16.3 ± 0.58	113.8 ± 3.5	
CC(=O)N1CCOC1=O [3-acetyl-2-oxazolidinone]	69.8 ± 0.6	15.3 ± 0.52	164.7 ± 3.5	1230 ± 60
